Data on 6 molecules can be found in patent publication US6596721B2, “Stable crystalline (6R) -tetrahydrofolic acid” (Eprova AG, priority 1994, dated 2003).

This series can be described thus: Stability on storage under severe conditions at 60° C. in the air (remaining tetrahydrofolic acid content by HPLC, colour). The settings on record: for Colour / discoloration: after a prolonged test period at 60° C. in the air. Type of series: physicochemical. The procedure: The tetrahydrofolic acid contents and the isomer contents given in the following examples were in each case determined by HPLC. All tetrahydrofolic acid contents are based on the anhydrous substance.
To determine the stability of crystalline (6S)- and (6R)-tetrahydrofolic acid, the substances together with comparison samples were stored under severe conditions at 60° C. in the air. The remaining tetrahydrofolic acid content was measured at periodic intervals and is shown in comparison with the initial value.
In contrast, the other products which are included for comparison reasons discolor rapidly to a high degree.
The substances employed for the stability tests were prepared as follows:
crystalline (6S)-tetrahydrofolic acid as in Example 6 of the present patent application crystalline (6R)-tetrahydrofolic acid as in Example 9 of the present patent application “Yamanouchi's crystalline (6R,S)-tetrahydrofolic acid” as in DE-OS 2 323 124, Example 3
amorphous (6S)-tetrahydrofolic acid (6S)-tetrahydrofolic acid is dissolved in acetic acid and precipitated using diethyl ether
amorphous (6R)-tetrahydrofolic acid (6R)-tetrahydrofolic acid is dissolved in acetic acid and precipitated using diethyl ether
amorphous (6R,S)-tetrahydrofolic acid (6R,S)-tetrahydrofolic acid is dissolved in acetic acid and precipitated using diethyl ether.

Setting [1] is: 0 days (initial value), 60° C. in air.

Regarding `Nc1nc2c(c(=O)[nH]1)N[C@H](CNc1ccc(C(=O)N[C@@H](CCC(=O)O)C(=O)O)cc1)CN2` (mixture of isomers) [amorphous (6R,S)-tetrahydrofolic acid, (6R,S)-tetrahydrofolic acid], the “Remaining tetrahydrofolic acid content in comparison with the initial value” (from here on “Remaining tetrahydrofolic acid content”) reads like this: under setting [1], 100.0%; (2 days at 60° C. in air) 53.4%; (13 days at 60° C. in air) 17.4%; (21 days at 60° C. in air) 13.2%.

As to `Nc1nc2c(c(=O)[nH]1)N[C@@H](CNc1ccc(C(=O)N[C@@H](CCC(=O)O)C(=O)O)cc1)CN2` [Amorphous (6S)-tetrahydrofolic acid, (6S)-tetrahydrofolic acid], the “Remaining tetrahydrofolic acid content” value was 100.0% under setting [1], 60.4% (2 days at 60° C. in air), 13.7% (13 days at 60° C. in air) and 7.9% (21 days at 60° C. in air).

`Nc1nc(=O)c2c([nH]1)NC[C@@H](CNc1ccc(C(=O)N[C@@H](CCC(=O)O)C(=O)O)cc1)N2` [Crystalline (6R)-tetrahydrofolic acid, N-[4-[[(2-amino-1,4,5,6,7,8-hexahydro-4-oxo-(6R)-pteridinyl)methyl]amino]benzoyl]-Lglutamic acid]: the Colour / discoloration result is “remain very pale, almost white”. Also, the “Remaining tetrahydrofolic acid content” value (0 h) stood at 100.0%. In addition, the “Remaining tetrahydrofolic acid content” value (48 h) is listed as 96.4%. Besides, the “Remaining tetrahydrofolic acid content” value (144 h) came to 96.1%. The “Remaining tetrahydrofolic acid content” value (312 h) is reported as 93.3%. Besides, the “Remaining tetrahydrofolic acid content” value (504 h) was 92.7%. For the same molecule, the “Remaining tetrahydrofolic acid content” value (1368 h) is on record as 82.0%.

As for `Nc1nc2c(c(=O)[nH]1)N[C@@H](CNc1ccc(C(=O)N[C@@H](CCC(=O)O)C(=O)O)cc1)CN2` [Crystalline (6S)-tetrahydrofolic acid, (6S)-tetrahydrofolic acid], the Colour / discoloration entry was “remain very pale, almost white”. Also, the “Remaining tetrahydrofolic acid content” value under setting [1] is listed as 100.0%. Besides, the “Remaining tetrahydrofolic acid content” value (2 days at 60° C. in air) turned out to be 100.1%. For the same molecule, the “Remaining tetrahydrofolic acid content” value (6 days at 60° C. in air) amounted to 102.5%. Besides, the “Remaining tetrahydrofolic acid content” value (13 days at 60° C. in air) came to 98.7%. In addition, where the note is “21 days at 60° C. in air”, the “Remaining tetrahydrofolic acid content” value is on record as 103.6%. For the same molecule, the “Remaining tetrahydrofolic acid content” value (28 days at 60° C. in air) is reported as 103.1%. Also, where the note is “57 days at 60° C. in air”, the “Remaining tetrahydrofolic acid content” value was found to be 101.2%. The “Remaining tetrahydrofolic acid content” value (360 days at 60° C. in air) is on record as 93.3%.

For the molecule `Nc1nc2c(c(=O)[nH]1)N[C@H](CNc1ccc(C(=O)N[C@@H](CCC(=O)O)C(=O)O)cc1)CN2` [Yamanouchi's crystalline (6R,S)-tetrahydrofolic acid], the “Remaining tetrahydrofolic acid content” value was determined as 100.0% under setting [1]; 83.6% (2 days at 60° C. in air); 48.6% (13 days at 60° C. in air); 31.0% (21 days at 60° C. in air); 13.4% (57 days at 60° C. in air).

With `Nc1nc2c(c(=O)[nH]1)N[C@H](CNc1ccc(C(=O)N[C@@H](CCC(=O)O)C(=O)O)cc1)CN2` [amorphous (6R)-tetrahydrofolic acid, (6R)-tetrahydrofolic acid], the “Remaining tetrahydrofolic acid content” value runs as follows: under setting [1], 100.0%; (2 days at 60° C. in air) 70.5%; (13 days at 60° C. in air) 29.1%; (21 days at 60° C. in air) 21.6%; (57 days at 60° C. in air) 9.8%.
